These results are taken from patent US10696692B2, “Amido-benzyl sulfone and sulfoxide derivates” (Forma TM, LLC, priority 2012, dated 2020).

One experiment concerns A2780 cells. The experiment can be described thus: Assay 2: In-Vitro Cell Proliferation Assay (A2780 cells, SRB readout, 72 hours).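 Also: viable cells counted via sulforhodamine B staining, absorbance at 570 nm, after 72 h exposure at 37 °C, DMSO 0.1% as control, media-only background subtracted.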 It counts as cell-based. The following applies: A2780 cells, 72 hours, SRB, read-out: Cell Proliferation (IC50).
The target in a further experiment is NAMPT (Homo sapiens (Human), UniProt P43490). Description: Assay 1: Biochemical Inhibition Assay (NAMPT enzymatic reaction, NMN quantified by mass spectrometry).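 Also: recombinant His-tagged human NAMPT preincubated with compound 15 min, then reacted 30 min at rt with 1 µM NAM, 100 µM PRPP, 2.5 mM ATP, NMN product read by RapidFire MS, normalized to L-Cystathionine internal standard.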 The following applies: read-out: Biochemical (IC50).

Like-named read-outs stand apart in the source and are kept apart here.

Chain of NAMPT (P43490 whole entry): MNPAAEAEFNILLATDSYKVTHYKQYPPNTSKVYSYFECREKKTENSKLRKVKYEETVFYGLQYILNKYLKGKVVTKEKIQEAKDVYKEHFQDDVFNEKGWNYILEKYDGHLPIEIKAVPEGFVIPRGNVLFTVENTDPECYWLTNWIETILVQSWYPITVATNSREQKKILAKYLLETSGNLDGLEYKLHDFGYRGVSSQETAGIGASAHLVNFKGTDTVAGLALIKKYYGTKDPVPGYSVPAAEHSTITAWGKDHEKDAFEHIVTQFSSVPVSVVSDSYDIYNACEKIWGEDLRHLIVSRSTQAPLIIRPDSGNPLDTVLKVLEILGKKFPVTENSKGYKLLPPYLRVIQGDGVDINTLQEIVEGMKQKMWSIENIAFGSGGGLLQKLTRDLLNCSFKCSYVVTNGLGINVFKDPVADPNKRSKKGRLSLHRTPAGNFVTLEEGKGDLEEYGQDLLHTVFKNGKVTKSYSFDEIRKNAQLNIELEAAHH

In the case of `CN1CCC([S+]([O-])c2ccc(CNC(=O)c3cc4ccncc4o3)cc2)CC1` (stereo not drawn) [Example 379, N-[[4-[(1-methyl-4-piperidyl)sulfinyl]phenyl]methyl]furo[2,3-c]pyridine-2-carboxamide], the IC50 stood at 41.4 nM in the experiment on A2780 cells (Homo sapiens, A2780, 72 h) and 114 nM at NAMPT.

Consider `CCN1CCC([S+]([O-])c2ccc(CNC(=O)c3cc4ccncc4o3)cc2)CC1` (stereo not drawn) [Example 380, N-[[4-[(1-ethyl-4-piperidyl)sulfinyl]phenyl]methyl]furo[2,3-c]pyridine-2-carboxamide], for which the IC50 in the experiment on A2780 cells (Homo sapiens, A2780, 72 h) was found to be 499 nM; on NAMPT it was 68.3 nM.

For the molecule `O=C(NCc1ccc([S+]([O-])C2CCN(C3CCOCC3)CC2)cc1)c1cnc2[nH]ncc2c1` (stereo not drawn) [Example 381, N-[[4-[(1-tetrahydropyran-4-yl-4-piperidyl)sulfinyl]phenyl]methyl]-1H-pyrazolo[3,4-b]pyridine-5-carboxamide], the IC50 with A2780 cells (Homo sapiens, A2780, 72 h) was 201 nM; at NAMPT, 290 nM.

In the case of `CCCN1CCC([S+]([O-])c2ccc(CNC(=O)c3cc4ccncc4o3)cc2)CC1` (stereo not drawn) [Example 382, N-[[4-[(1-propyl-4-piperidyl)sulfinyl]phenyl]methyl]furo[2,3-c]pyridine-2-carboxamide], the IC50 with A2780 cells and at NAMPT was 2000 nM in each case.

In the case of `CCCN1CCC([S@+]([O-])c2ccc(CNC(=O)c3cc4ccncc4o3)cc2)CC1` [Example 383, N-[[4-[(S)-(1-propyl-4-piperidyl)sulfinyl]phenyl]methyl]furo[2,3-c]pyridine-2-carboxamide], the IC50 in the experiment on A2780 cells was 6.46 nM; at NAMPT, 35.7 nM.

For the molecule `O=C(NCc1ccc([S+]([O-])C2CCN(C3CCOCC3)CC2)cc1)c1ccc2nccn2c1` (stereo not drawn) [Example 384, N-[[4-[(1-tetrahydropyran-4-yl-4-piperidyl)sulfinyl]phenyl]methyl]imidazo[1,2-a] pyridine-6-carboxamide], the IC50 in the experiment on A2780 cells (Homo sapiens, A2780, 72 h) came out at 39.1 nM; on NAMPT, 36.2 nM.

Consider `CCN1CCC([S+]([O-])c2ccc(CNC(=O)N3Cc4ccncc4C3)cc2)CC1` (stereo not drawn) [Example 385, N-[[4-[(1-ethyl-4-piperidyl)sulfinyl]phenyl]methyl]-1,3-dihydropyrrolo[3,4-c]pyridine-2-carboxamide], for which the IC50 amounted to 56.7 nM in the experiment with A2780 cells (Homo sapiens, A2780, 72 h) and 30.2 nM at NAMPT.

As for `CC(C)N1CCC([S+]([O-])c2ccc(CNC(=O)c3cc4cnccc4[nH]3)cc2)CC1` (stereo not drawn) [Example 386, N-[[4-[(1-isopropyl-4-piperidyl)sulfinyl]phenyl]methyl]-1H-pyrrolo[3,2-c]pyridine-2-carboxamide], the IC50 was 70.6 nM in the experiment on A2780 cells (Homo sapiens, A2780, 72 h) and 60 nM on NAMPT.

As to “Imidazo[1,2-a]pyridine-6- carboxylic acid 4-[4- (tetrahydro-pyran-4-yl)- piperazine-1-sulfonyl]- benzylamide [Example 59]”, the IC50 worked out at 3 nM in the experiment on A2780 cells and 10.7 nM on NAMPT.

With “cis-Imidazo[1,2- a]pyridine-6-carboxylic acid 4-[(3aR,6aS)- (tetrahydro-furo[3,4- c]pyrrol-5-yl)sulfonyl]- benzylamide [Example 71]”, the IC50 with A2780 cells stood at 6.4 nM; on NAMPT, 16.7 nM.

Consider “tert-butyl 2-[4-[(imidazo[1,2- a]pyridine-6- carbonylamino)methyl]phenyl] sulfonyl-2,9- diazaspiro[4.5]decane-9- carboxylate [Example 242]”, for which the IC50 in the experiment with A2780 cells is 2.99 nM; at NAMPT, 6.34 nM.

For “tert-butyl 7-[4-[(imidazo[1,2- a]pyridine-6- carbonylamino)methyl]phenyl] sulfonyl-1,7- diazaspiro[4.4]nonane-1- carboxylate [Example 236]”, the IC50 in the experiment with A2780 cells was 1.79 nM; at NAMPT, 13.3 nM.
